“And” between values parts separate entries of the source, which are not always exact repeats. Identical values can stand only once.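 All cell lines were grown in 96-well plates and treated with compound for 48 hours. GI50 is the concentration that inhibits growth by half. At the TGI there is no net growth.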
Key:
Test in all cases: NCI anticancer screen, dose series, 48 h
[1] = system: HCT-15 colon
[2] = system: BT-549 breast
[3] = system: 786-0 renal
[4] = system: COLO 205 colon
[5] = system: SK-MEL-2 melanoma
[6] = system: HS 578T breast
[7] = system: CCRF-CEM leukemia
[8] = system: OVCAR-8 ovarian
[9] = system: SK-MEL-5 melanoma
[10] = system: RPMI-8226 leukemia
[11] = system: PC-3 prostate
[12] = system: SR leukemia
[13] = system: MCF7 breast
[14] = system: XF 498 CNS
[15] = system: HCT-116 colon
[16] = system: SK-MEL-28 melanoma
[17] = system: OVCAR-4 ovarian
[18] = system: IGROV1 ovarian
[19] = system: OVCAR-5 ovarian
[20] = system: SNB-75 CNS
[21] = system: SK-OV-3 ovarian
[22] = system: RXF 393 renal
[23] = system: DMS 273 small cell lung
[24] = system: ACHN renal
[25] = system: UACC-257 melanoma
[26] = system: NCI-H226 lung
[27] = system: MOLT-4 leukemia
[28] = system: NCI-H23 lung
[29] = system: HT29 colon
[30] = system: HOP-18 NSCLC
[31] = system: A498 renal
[32] = system: LOX IMVI melanoma
[33] = system: HOP-92 NSCLC
[34] = system: MDA-N
[35] = system: T-47D breast
[36] = system: NCI-H522 lung
[37] = system: DMS 114 small cell lung
[38] = system: UO-31 renal
[39] = system: OVCAR-3 ovarian
[40] = system: MDA-MB-231 breast
[41] = system: EKVX NSCLC
[42] = system: NCI/ADR-RES ovarian
[43] = system: RXF-631 renal
[44] = system: SF-295 CNS
[45] = system: SN12C renal
[46] = system: HL-60(TB) leukemia
[47] = system: KM12 colon
[48] = system: UACC-62 melanoma
[49] = system: HOP-62 NSCLC
[50] = system: A549 NSCLC
[51] = system: SW-620 colon
[52] = system: CAKI-1 renal
[53] = system: SF-268 CNS
[54] = system: NCI-H460 lung
[55] = system: M14 melanoma
[56] = system: TK-10 renal
[57] = system: MALME-3M melanoma
[58] = system: DU-145 prostate
[59] = system: MDA-MB-435
[60] = system: U251 CNS

CC1(C)CC[C@H](C2=CC(=O)c3c(O)ccc(O)c3C2=O)O1
GI50 [1]: 1.71 µM and 0.378 µM and 0.226 µM | TGI [1]: 4.11 µM and 1.64 µM and 0.65 µM | GI50 [2]: 0.963 µM and 0.358 µM | TGI [2]: 2.19 µM and 1.13 µM | GI50 [3]: 0.829 µM and 1.28 µM and 0.237 µM | TGI [3]: 2.07 µM and 2.8 µM and 0.504 µM | GI50 [4]: 0.632 µM and 0.144 µM and 0.139 µM | TGI [4]: 1.66 µM and 0.388 µM and 0.227 µM | GI50 [5]: 4.34 µM and 1.3 µM and 0.682 µM | TGI [5]: 8.47 µM and 2.67 µM and 1.56 µM | TGI [6]: 6.78 µM and 7.42 µM | GI50 [7]: 0.666 µM and 0.114 µM | GI50 [8]: 2.27 µM and 0.675 µM and 0.581 µM | TGI [8]: 20.4 µM and 3.44 µM and 2.12 µM | GI50 [9]: 1.65 µM and 1.36 µM and 0.464 µM | TGI [9]: 4.08 µM and 2.68 µM and 1.22 µM | GI50 [10]: 1.42 µM and 0.278 µM and 0.398 µM | TGI [10]: 5.13 µM and 0.992 µM and 2.2 µM | TGI [11]: 7.34 µM and 4.16 µM | GI50 [12]: 0.0764 µM | TGI [12]: 1.46 µM | TGI [13]: 0.739 µM and 0.337 µM | GI50 [14]: 2.3 µM and 2.36 µM and 0.563 µM | TGI [14]: 4.6 µM and 3.89 µM and 1.34 µM | GI50 [15]: 1.08 µM and 0.344 µM and 0.205 µM | TGI [15]: 2.57 µM and 1.3 µM and 0.579 µM | GI50 [16]: 2.17 µM and 0.979 µM and 0.571 µM | TGI [16]: 5.43 µM and 2.15 µM and 1.16 µM | GI50 [17]: 1.86 µM and 0.311 µM and 0.192 µM | TGI [17]: 4.3 µM and 1.63 µM and 0.505 µM | GI50 [18]: 4.93 µM and 2.48 µM and 1.61 µM | TGI [18]: 9.58 µM and 5.31 µM and 3.21 µM | GI50 [19]: 4.43 µM and 2 µM and 1.91 µM | TGI [19]: 8.24 µM and 3.56 µM and 3.57 µM | GI50 [20]: 8.53 µM and 2.87 µM and 0.95 µM | TGI [20]: 27.7 µM and 4.02 µM | GI50 [21]: 4.81 µM | TGI [21]: 18.8 µM and 13.7 µM | GI50 [22]: 1.39 µM and 2.02 µM and 0.271 µM | TGI [22]: 2.93 µM and 3.82 µM and 0.604 µM | GI50 [23]: 7.31 µM and 1.32 µM and 0.752 µM | GI50 [24]: 1.64 µM and 1.27 µM and 0.252 µM | TGI [24]: 3.45 µM and 2.55 µM and 0.69 µM | GI50 [25]: 1.99 µM and 1.38 µM and 0.391 µM | TGI [25]: 4.77 µM and 2.67 µM and 1.08 µM | GI50 [26]: 5.01 µM and 1.79 µM and 0.611 µM | GI50 [27]: 0.487 µM and 0.16 µM and 0.137 µM | GI50 [28]: 2.14 µM and 0.836 µM and 0.639 µM | TGI [28]: 6.41 µM and 2.07 µM and 2.36 µM | GI50 [29]: 3.17 µM and 1.72 µM and 0.773 µM | TGI [29]: 7.29 µM and 3.63 µM and 1.83 µM | GI50 [30]: 1.83 µM and 1.72 µM and 0.265 µM | TGI [30]: 3.39 µM and 3.15 µM and 0.703 µM | GI50 [31]: 6.81 µM and 2.57 µM and 1.71 µM | TGI [31]: 13.6 µM and 6.05 µM and 3.58 µM | GI50 [32]: 1.78 µM and 0.303 µM and 0.658 µM | TGI [32]: 4.66 µM and 1.13 µM and 1.97 µM | GI50 [33]: 1.75 µM and 1.14 µM and 0.263 µM | TGI [33]: 3.39 µM and 2.5 µM and 0.725 µM | TGI [34]: 1.6 µM and 3.78 µM | TGI [35]: 1.35 µM and 2.63 µM | GI50 [36]: 0.55 µM and 0.0942 µM | TGI [36]: 1.23 µM and 0.248 µM | GI50 [37]: 1.63 µM | TGI [37]: 2.21 µM and 3.14 µM and 0.47 µM | GI50 [38]: 1.39 µM and 1.69 µM and 0.391 µM | TGI [38]: 4 µM and 3.06 µM and 0.838 µM | GI50 [39]: 2.23 µM and 1.64 µM and 0.669 µM | TGI [39]: 4.87 µM and 3.02 µM and 1.61 µM | TGI [40]: 2.79 µM and 8.31 µM | GI50 [41]: 4.7 µM and 1.48 µM and 1.35 µM | TGI [41]: 11.8 µM and 3.03 µM and 3.95 µM | TGI [42]: 12 µM | TGI [43]: 3.98 µM | GI50 [44]: 8.48 µM and 2.4 µM and 3.24 µM | TGI [44]: 22.1 µM and 6.73 µM and 8.11 µM | GI50 [45]: 2.6 µM and 1.51 µM and 0.382 µM | GI50 [46]: 0.505 µM and 0.131 µM | TGI [46]: 1.36 µM and 0.442 µM | GI50 [47]: 6.25 µM and 1.69 µM and 1.83 µM | TGI [47]: 14.2 µM and 3.2 µM and 3.45 µM | GI50 [48]: 2.36 µM and 1.3 µM and 0.54 µM | TGI [48]: 5.28 µM and 2.66 µM and 1.53 µM | TGI [49]: 9.96 µM and 6.57 µM | GI50 [50]: 9.2 µM and 3.48 µM and 3.31 µM | TGI [50]: 30 µM and 10 µM | GI50 [51]: 0.66 µM and 0.374 µM and 0.0996 µM | TGI [51]: 1.67 µM and 1.64 µM and 0.229 µM | GI50 [52]: 1.11 µM and 1.38 µM and 0.48 µM | TGI [52]: 2.44 µM and 2.72 µM and 1.17 µM | GI50 [53]: 3.54 µM and 2.19 µM and 1.01 µM | TGI [53]: 10.3 µM and 6.27 µM and 6.67 µM | GI50 [54]: 5.14 µM and 1.61 µM and 1.45 µM | TGI [54]: 19.5 µM and 3.36 µM and 3.86 µM | GI50 [55]: 0.797 µM and 0.274 µM and 0.201 µM | TGI [55]: 1.78 µM and 0.859 µM and 0.438 µM | GI50 [56]: 1.5 µM and 1.72 µM and 0.604 µM | TGI [56]: 3.98 µM and 3.1 µM and 1.66 µM | GI50 [57]: 1.15 µM and 1.26 µM and 0.201 µM | TGI [57]: 2.76 µM and 2.53 µM and 0.471 µM | TGI [58]: 6.28 µM and 4.38 µM | GI50 [59]: 0.33 µM | TGI [59]: 0.837 µM | GI50 [60]: 3.71 µM and 2.51 µM and 1.5 µM | TGI [60]: 6.5 µM and 7.21 µM and 3.19 µM

Reference: PubChem BioAssay (NCI)
